This note sets out measurements from patent publication US20260028356A1, “1,3,4,7-TETRAHYDRO-2H-PYRROLO[3',2':5,6]PYRIDO[2,3-B][1,4]OXAZEPINE BCL-2 INHIBITORS” (AbbVie Inc., priority 2022, published 2026).

pEC50: −log10 of the molar value. Values joined by “and” are separate entries in the source; they are usually repeats but may differ in a detail not shown here. Identical values can stand only once.

The subject of one data set is Molt-4 cells. The experiment in a line: Cell Viability Assay (CellTiter-Glo) in Molt-4 cells (counter screen). It is filed as cell-based. The note with it: 24 hours, 10% Human Serum. The method, then: (§1) The acute lymphoblastic leukemia (ALL) human cell line RS4;11 (ATCC, Manassas VA) was used as the primary human cell line to assess the cellular activity of compound of the present Examples in vitro and their efficacy in vivo. […] The acute lymphoblastic leukemia cell line Molt-4, which is derived from immature T-lymphoid cells (T-ALL), was used as a counter screen assay.
(§2) 3000 Cells (0.1×10^6/mL) were seeded in each well of 384-well plate and were treated for 24 hours in a humidified chamber with 5% CO2. Cell viability was determined by CellTiter-Glo as described by the manufacturer's instructions (Promega Corporation, Madison, WI, USA).
(In general: ATP-based viability assays read luminescence as a measure of living cells.)

Data set [1] can be described thus: Bioavailability study: pharmacokinetics after single intravenous or oral dose in mouse. It is filed as in vivo, CD-1 mice (male). The procedure:
Studies were conducted to evaluate the pharmacokinetic profiles of Example 25 herein and Example 2 in WO 2019/040550 after single intravenous or oral dose in mouse. CD-1 mice (male) were obtained from Charles River Laboratories (Wilmington, MA).
The pharmacokinetics of Example 25 herein and Example 2 in WO 2019/040550 were evaluated following single 1 mg/kg intravenous or oral doses in mouse. Example 25 herein and Example 2 in WO 2019/040550 were prepared as a solution in DMSO:Tween 80:PEG-400:Dextrose 5% in Water (5:5:20:70, v/v) for the IV and oral dose mouse studies. The intravenous dose was administered as a slow bolus to the penile vein under isoflurane anesthesia. The oral doses were administrated by gavage. Serial blood samples were obtained […], 0.25, 0.5, 1.0, 4, 6, 9, 12, 24, 32 and 48 hours post dosing and […]. Plasma was separated by centrifugation and stored frozen (<−15° C.) until analysis.
HPLC-MS/MS bioanalytical methods were utilized for the quantitation of Example 25 herein and Example 2 in WO 2019/040550 concentration in plasma. The analytical methods used protein precipitation to extract compound from plasma. All samples were combined with a minimum two volume equivalents of organic solvent containing internal standard, vortexed and then centrifuged to pellet the proteins. Supernatants were used for subsequent analysis by liquid chromatography-tandem mass spectrometry (LC-MS/MS). Studies involving quantitative analysis employed spiked standards in plasma that were processed simultaneously with the samples.
Analytes were separated using reverse phase chromatography on a C8 or C18 column prior to analysis on an API5500m (or higher) mass spectrometer with a Turbo-Ion Spray source. Peak areas were determined using Sciex Analyst™ 1.6 (or higher) software or Sound Analytics DiscoveryQuant™ 2.0 (or higher) software. Actual concentrations (when required) were calculated by regression analysis of the peak area ratio (parent/internal standard) of the spiked standards versus concentrations.
Peak plasma concentrations (Cmax) and the time to peak plasma concentration (Tmax) were determined directly from the plasma concentration data for each animal. The compound plasma concentration data were submitted to multi-exponential curve fitting using WinNonlin software. The area under the plasma concentration-time curve from 0 to t hours after dosing (AUC0-t, t=time of the last measurable plasma concentration) was calculated using the linear trapezoidal rule. The residual area extrapolated to infinity, determined as the final measured plasma concentration (Ct) divided by the terminal plasma elimination rate constant (β), was added to the AUC0-t to produce the total area under the curve (AUC0-∞). The apparent total plasma clearance (CLp) was calculated by dividing the administered dose by the AUC0-∞. Half-life (t1/2) was determined with the following calculation: t1/2=ln (2)/elimination rate constant. The initial volume of distribution (Vc) was calculated as the dose divided by the extrapolated concentration at time=0 (C0). The volume of distribution at steady state, Vss, was estimated as a product of the total plasma clearance (CLp) and the mean residence time (MRT); the terminal-phase volume of distribution, Vβ, was derived from the total plasma clearance value (CLp) divided by the terminal plasma elimination rate constant ((3). Oral bioavailability (F) was calculated as the dose-normalized AUC0-∞ (AUC0-∞/D) from the oral dose divided by the corresponding dose normalized AUC0-∞ from intravenous dosing.

In another data set the test system is RS4;11 cells. The experiment in a line: Cell Viability Assay (CellTiter-Glo) in RS4;11 cell line. The settings on record: 24 hours, 10% Human Serum. The data set is classed as cell-based. The procedure:
as §1, §2

Consider `C[C@H]1CCC(CNc2ccc(S(=O)(=O)NC(=O)c3ccc(N4CCN5CC6=C(c7ccc(Cl)cc7)CC(C)(C)C[C@H]6OCCCOC[C@@H]5C4)cc3N3CCCOc4nc5[nH]ccc5cc43)cc2[N+](=O)[O-])OC1` (stereo partly drawn) [Example 23, 4-((4aS,10aR)-14-(4-chlorophenyl)-12,12-dimethyl-1,2,4a,5,8,9,10a,11,13,15-decahydro-7H,12H-benzo[f]pyrazino[2,1-c][1,8]dioxa[4]azacycloundecin-3(4H)-yl)-2-(3,4-dihydro-2H-pyrrolo[3′,2′:5,6]pyrido[2,3-b][1,4]oxazepin-1(7H)-yl)-N-((4-((((2R,5S)-5-methyltetrahydro-2H-pyran-2-yl)methyl)amino)-3-nitrophenyl)sulfonyl)benzamide], for which the negative-log EC50 (pEC50) in the data set on Molt-4 cells is under 5.00.

For `CO[C@@H]1CC[C@@H](CNc2ccc(S(=O)(=O)NC(=O)c3ccc(N4CCN5CC6=C(c7ccc(Cl)cc7)CC(C)(C)C[C@H]6OCCCOC[C@@H]5C4)cc3N3CCCOc4nc5[nH]ccc5cc43)cc2[N+](=O)[O-])OC1` [Example 25, 4-((4aS,10aR)-14-(4-chlorophenyl)-12,12-dimethyl-1,2,4a,5,8,9,10a,11,13,15-decahydro-7H,12H-benzo[f]pyrazino[2,1-c][1,8]dioxa[4]azacycloundecin-3(4H)-yl)-2-(3,4-dihydro-2H-pyrrolo[3′,2′:5,6]pyrido[2,3-b][1,4]oxazepin-1(7H)-yl)-N-((4-((((2S,5R)-5-methoxytetrahydro-2H-pyran-2-yl)methyl)amino)-3-nitrophenyl)sulfonyl)benzamide], in data set [1] (IV 1 mg/kg, individual mouse), the AUC was 11200 ng·h/mL and 12900 ng·h/mL; the CLp is 1.28 mL/min/kg; the mean residence time (MRT) came to 10 h; the Vβ is 1.0 L/kg and 0.90 L/kg. In data set [1] (PO 1 mg/kg, individual mouse), the exposure (AUC) is 4330 ng·h/mL and 4490 ng·h/mL; the Tmax was found to be 4.0 h; the t1/2 was 8.7 h and 10 h. Moreover, the Tmax in data set [1] (PO 1 mg/kg, mean) came out at 4.0 h.

For `COC1(CNc2ccc(S(=O)(=O)NC(=O)c3ccc(N4CCN5CC6=C(c7ccc(Cl)cc7)CC(C)(C)C[C@H]6OCCCOC[C@@H]5C4)cc3N3CCCOc4nc5[nH]ccc5cc43)cc2[N+](=O)[O-])CCOCC1` [Example 26, 4-((4aS,10aR)-14-(4-chlorophenyl)-12,12-dimethyl-1,2,4a,5,8,9,10a,11,13,15-decahydro-7H,12H-benzo[f]pyrazino[2,1-c][1,8]dioxa[4]azacycloundecin-3(4H)-yl)-2-(3,4-dihydro-2H-pyrrolo[3′,2′:5,6]pyrido[2,3-b][1,4]oxazepin-1(7H)-yl)-N-((4-(((4-methoxytetrahydro-2H-pyran-4-yl)methyl)amino)-3-nitrophenyl)sulfonyl)benzamide], in the data set on Molt-4 cells, the pEC50 is under 5.00.

`CC1(C)CC(c2ccc(Cl)cc2)=C2CN3CCN(c4ccc(C(=O)NS(=O)(=O)c5ccc(NC[C@@H]6CC[C@@H](O)CO6)c([N+](=O)[O-])c5)c(N5CCCOc6nc7[nH]ccc7cc65)c4)C[C@H]3COCCCO[C@@H]2C1` [Example 27, 4-((4aS,10aR)-14-(4-chlorophenyl)-12,12-dimethyl-1,2,4a,5,8,9,10a,11,13,15-decahydro-7H,12H-benzo[f]pyrazino[2,1-c][1,8]dioxa[4]azacycloundecin-3(4H)-yl)-2-(3,4-dihydro-2H-pyrrolo[3′,2′:5,6]pyrido[2,3-b][1,4]oxazepin-1(7H)-yl)-N-((4-((((2S,5R)-5-hydroxytetrahydro-2H-pyran-2-yl)methyl)amino)-3-nitrophenyl)sulfonyl)benzamide]: the pEC50 with RS4;11 cells was 9.48; in the data set with Molt-4 cells, 6.27.

Usually pEC50 stands for the negative decadic logarithm of the EC50, by convention in mol/L. The term AUC denotes the area under the concentration-time curve, a measure of exposure. A lower AUC goes with low exposure. Usually MRT stands for the average time that molecules of a dose stay in the body. Usually Tmax stands for the time at which the peak concentration occurs.
